One series relates to MDA-MB-468 cells. Description: Cell viability assay (CCK-8), MDA-MB-468. Type of series: cell-based, human. Details: key to MDMB-468 viability: % viability vs DMSO-treated cells, blank-corrected A450. The settings on record: in % (unit assumed). The procedure: (§1) Cells were collected and seeded into 96-well plates at a density of 2000–4000 cells per well and cultured overnight to allow cells to adhere. After adherence, cells were treated with the indicated compounds for 72 h. Then 20 μL CCK-8 solution (Vazyme, A311) was added into each well and incubated at 37 °C for 2–4 h. Absorbance was detected at a wavelength of 450 nm using a TECAN plate reader. Cell viability was calculated with the equation: Cell viability (%) = 100(Absorbance of treated cell - Absorbance of Blank control)/ (Absorbance of DMSO-treated cells - Absorbance of Blank control); Blank control: medium and CCK-8 solution, no cells.

A further series deals with HCT 116 cells. In words: Cell viability assay (CCK-8), HCT 116. Details: key to HCT 116 viability: % viability vs DMSO-treated cells, blank-corrected A450. The settings on record: in % (unit assumed). Type of series: cell-based, human. The method, then:
as §1

A further series relates to HT-29 cells. Description: Cell viability assay (CCK-8), HT-29. In kind it is cell-based, human. Also noted: key to HT-29 viability: % viability vs DMSO-treated cells, blank-corrected A450. The settings on record: in % (unit assumed). The method, then: as §1
A further series relates to A549 cells. In words: Cell viability assay (CCK-8), A549. In kind it is cell-based, human. Also noted: key to A549 viability: % viability vs DMSO-treated cells, blank-corrected A450. The following applies: in % (unit assumed). The procedure:
as §1

Series [1] addresses T1, phosphorylated IRE1α (p-IRE1α) (Homo sapiens, UniProt O75460).
T1 construct: Human IRE1α kinase and RNase domain (residues 547–977) was subcloned into pLIB plasmid; His tag (with TEV cleavage site) (N, cleaved yes); made in house; host or cells: Sf9 insect cells, baculovirus (Bac-to-Bac)
In words: FRET-based IRE1α RNase activity assay, phosphorylated IRE1α. In kind it is biochemical. An outline of the steps: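 Sf9-expressed IRE1α kinase-RNase domain (residues 547–977), fully phosphorylated fraction, 4 nM, preincubated with compound 30 min at RT, then 200 nM FAM/BHQ1 XBP1 RNA added in HEPES pH 7.5 buffer. Fluorescence (ex 485/em 535 nm) read kinetically for 1 h at RT; inhibition from linear slopes, IC50 by concentration-response fit.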

The next series has as its target IRE1α (ERN1) (Homo sapiens, UniProt O75460). Description: LanthaScreen Eu kinase binding assay, IRE1α. The procedure: LanthaScreen^TM Eu kinase binding assays were conducted by SelectScreen Kinase Profiling Services (Thermo Fisher) using Alexa Fluor conjugated kinase tracer, tagged kinase protein, and Eu-labeled anti-tag antibody. The binding of the tracer to the kinase will form the tracer-kinase complex, resulting in a high FRET signal with the Eu-labeled anti-tag antibody. Displacement of the tracer by a kinase inhibitor led to a decreased FRET signal. […] Buffer A containing 50 mM HEPES pH 7.5, 0.01% BRIJ-35, 10 mM MgCl2, and 1 mM EGTA was used.
Kinase profiling was conducted by the SelectScreen Kinase Profiling Services (Thermo Fisher), using Z′-LYTE, Adapta, or LanthaScreen Eu Kinase Binding Assay for different kinases. The kinome phylogenetic tree was generated using the KinMap web portal.
Background: In TR-FRET formats the signal depends on donor and acceptor labels being close together.

In series [2] the target is T2, dephosphorylated IRE1α (547–977) (Homo sapiens, UniProt O75460).
T2 construct: Human IRE1α kinase and RNase domain (residues 547–977) was subcloned into pLIB plasmid; His tag (with TEV cleavage site) (N, cleaved yes); made in house; host or cells: Sf9 insect cells, baculovirus (Bac-to-Bac)
In words: FRET-based IRE1α RNase activity assay, dephosphorylated IRE1α. In kind it is biochemical. The following applies: FRET assay. The procedure, abridged:
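Dephosphorylated human IRE1α (residues 547–977, Sf9-expressed, λ-phosphatase treated), 40 nM, preincubated 30 min with compound at room temperature, then 100 nM FAM/BHQ1 XBP1 RNA added in HEPES pH 7.5 buffer. Fluorescence (485/535 nm) read kinetically for 1 h; inhibition from linear-phase slopes versus DMSO, fitted to IC50.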

A further series concerns the target T3, IRE1α (Homo sapiens, UniProt O75460).
T3 construct: Human IRE1α kinase and RNase domain (residues 547–977) was subcloned into pLIB plasmid; His tag (with TEV cleavage site) (N, cleaved yes); made in house; host or cells: Sf9 insect cells, baculovirus (Bac-to-Bac)
Description: Differential scanning fluorimetry (DSF), IRE1α. Type of series: binding. The settings on record: for IRE1 ∆Tm(°C): Supplementary Fig. 3c, replicate values. The method, then: (§2) The DSF assay was performed in PBS buffer containing 2 mM DTT, in a total reaction volume of 20 µl with indicated compounds (final 1% DMSO) and the final concentration of 1 µM IRE1α protein and 5× SYPRO Orange fluorescent dye (5000× in DMSO, Sigma S5692). The melting curve was measured at a temperature range from 25 °C to 95 °C and in increments of 1 °C for 30 s using a Bio-Rad CFX96 Real-Time PCR detection system with the FRET scan mode. The melting temperature (Tm) was obtained by fitting the melting curve to Boltzmann sigmoidal in GraphPad Prism and the thermal shift (∆Tm) was calculated by using the equation: ∆Tm = Tm(compound) -Tm(DMSO).
For orientation: Differential scanning fluorimetry follows unfolding on heating by fluorescence.

The target of a further series is T4, p-IRE1α (Homo sapiens, UniProt O75460).
T4 construct: Human IRE1α kinase and RNase domain (residues 547–977) was subcloned into pLIB plasmid; His tag (with TEV cleavage site) (N, cleaved yes); made in house; host or cells: Sf9 insect cells, baculovirus (Bac-to-Bac)
In words: Differential scanning fluorimetry (DSF), p-IRE1α. Type of series: binding. The settings on record: individual replicate values. The method, then:
as §2

[3] abbreviates: FRET assay, source data, unit from Fig. 3, read-out: p-IRE1a IC50, individual replicates (n1-n4).
Setting [4] is: source data, unit from Fig. 3 / sheet Fig. 2b, read-out: IRE1a IC50, individual replicates (n1-n4).
[5] abbreviates: FRET assay, RNase activity, mean (± SEM), read-out: p-IRE1α IC50.
[6] abbreviates: p-IRE1a, individual replicates (n1-n3), Supplementary Fig. 2b, 2c, read-out: IC50.
Where [7] appears, read: RNase activity, mean (± SEM), read-out: IRE1α IC50.

Values joined by “and” are separate entries in the source; they are usually repeats but may differ in a detail not shown here. Equal entries are not always repeated. Where two headings read alike, the source gives them in different places.

Chain of IRE1α (ERN1) (O75460 19-977): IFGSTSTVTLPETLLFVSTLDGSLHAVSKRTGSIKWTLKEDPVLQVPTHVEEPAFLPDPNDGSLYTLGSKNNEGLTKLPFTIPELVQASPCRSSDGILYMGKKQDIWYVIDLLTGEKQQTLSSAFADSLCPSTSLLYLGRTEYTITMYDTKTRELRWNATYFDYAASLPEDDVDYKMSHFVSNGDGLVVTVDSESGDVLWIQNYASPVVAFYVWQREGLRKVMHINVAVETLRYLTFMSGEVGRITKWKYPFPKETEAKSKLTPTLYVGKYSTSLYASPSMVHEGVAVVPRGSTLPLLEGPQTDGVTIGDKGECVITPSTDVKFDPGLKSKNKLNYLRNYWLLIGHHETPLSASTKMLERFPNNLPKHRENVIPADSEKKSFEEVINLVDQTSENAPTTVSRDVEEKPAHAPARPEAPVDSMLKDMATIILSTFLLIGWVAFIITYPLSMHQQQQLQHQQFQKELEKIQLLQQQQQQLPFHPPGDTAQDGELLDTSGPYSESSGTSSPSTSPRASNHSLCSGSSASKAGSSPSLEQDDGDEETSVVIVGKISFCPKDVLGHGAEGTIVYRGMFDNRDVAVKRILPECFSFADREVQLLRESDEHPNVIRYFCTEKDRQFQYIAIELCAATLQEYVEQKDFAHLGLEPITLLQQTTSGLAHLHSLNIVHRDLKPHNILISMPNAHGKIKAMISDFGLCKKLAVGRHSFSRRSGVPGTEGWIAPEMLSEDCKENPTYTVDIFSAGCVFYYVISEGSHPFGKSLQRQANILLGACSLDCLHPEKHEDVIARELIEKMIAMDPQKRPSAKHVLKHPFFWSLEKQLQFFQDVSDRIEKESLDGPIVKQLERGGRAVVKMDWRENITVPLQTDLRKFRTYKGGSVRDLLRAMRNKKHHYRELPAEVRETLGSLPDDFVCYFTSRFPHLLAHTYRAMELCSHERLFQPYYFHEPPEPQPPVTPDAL
T3 sequence (O75460 547-977): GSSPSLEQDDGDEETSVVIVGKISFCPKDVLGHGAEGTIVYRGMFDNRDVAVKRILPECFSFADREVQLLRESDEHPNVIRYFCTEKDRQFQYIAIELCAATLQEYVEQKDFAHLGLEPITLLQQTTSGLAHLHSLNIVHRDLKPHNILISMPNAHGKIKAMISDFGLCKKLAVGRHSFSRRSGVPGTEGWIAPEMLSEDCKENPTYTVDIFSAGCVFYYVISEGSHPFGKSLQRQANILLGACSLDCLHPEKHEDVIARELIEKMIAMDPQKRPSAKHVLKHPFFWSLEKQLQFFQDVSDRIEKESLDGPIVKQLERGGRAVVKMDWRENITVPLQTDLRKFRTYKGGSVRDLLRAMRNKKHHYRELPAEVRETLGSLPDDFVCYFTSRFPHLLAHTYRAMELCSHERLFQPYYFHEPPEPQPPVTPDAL
T2 sequence (O75460 547-977): as above
T1 sequence (O75460 547-977): as above
T4 sequence (O75460 547-977): as above

`CCOC(=O)CCc1c(C)n(C(=O)c2ccccc2)c2ccc(Br)cc12` [Compound 105]: the MDMB-468 viability was 105.638 and 111.110 and 96.794 in the series on MDA-MB-468 cells (0.205761 μM); 104.047 and 105.002 and 96.794 in the series with MDA-MB-468 cells (0.617284 μM); 99.021 and 100.357 and 92.786 in the series on MDA-MB-468 cells (1.85185 μM); 101.502 and 93.231 and 90.241 in the series on MDA-MB-468 cells (5.55556 μM); 91.131 and 95.903 and 102.075 with MDA-MB-468 cells (16.6667 μM); 78.343 and 88.459 and 92.404 with MDA-MB-468 cells (50 μM). Besides, the “HCT 116 viability” value with HCT 116 cells (0.205761 μM) is 105.479 and 107.511 and 97.213; in the series on HCT 116 cells (0.617284 μM), 103.773 and 98.693 and 112.553; with HCT 116 cells (1.85185 μM), 103.848 and 104.852 and 99.659; in the series with HCT 116 cells (5.55556 μM), 103.874 and 100.174 and 105.429; in the series with HCT 116 cells (16.6667 μM), 102.870 and 107.248 and 108.126; in the series with HCT 116 cells (50 μM) it was 80.557 and 78.801 and 90.315. Besides, the HT-29 viability in the series on HT-29 cells (0.205761 μM) was 113.182 and 110.499 and 118.448; with HT-29 cells (0.617284 μM), 123.469 and 111.597 and 102.062; with HT-29 cells (1.85185 μM) it was 133.369 and 110.621 and 100.802; in the series on HT-29 cells (5.55556 μM), 113.223 and 102.896 and 116.984; in the series with HT-29 cells (16.6667 μM) it was 110.519 and 102.367 and 115.540; in the series on HT-29 cells (50 μM) it was 128.693 and 87.059 and 105.213. The A549 viability with A549 cells (0.205761 μM) is 96.121 and 99.380 and 106.104; with A549 cells (0.617284 μM), 98.783 and 101.411 and 97.532; in the series on A549 cells (1.85185 μM), 93.780 and 103.281 and 111.131; in the series with A549 cells (5.55556 μM) it was 105.404 and 106.621 and 106.322; with A549 cells (16.6667 μM), 96.476 and 98.393 and 111.165; in the series with A549 cells (50 μM), 100.539 and 103.017 and 106.219.
As a reminder, the IC50 is the concentration at which inhibition is half-maximal. With `COc1ccc2c(c1)c(CCC(=O)O)c(C)n2C(=O)c1cc2ccccc2s1` [IA10], the IC50 in series [1] (FRET assay, read-out: p-IRE1α IC50 (RNase activity)) was 1970 nM; in [1] (setting [3]) it was 3010 nM and 1920 nM and 985 nM; at IRE1α (ERN1) (IRE1α kinase domain, read-out: IC50 (kinase binding), LanthaScreen Eu kinase binding), 9610 nM; in series [2] (dephosphorylated IRE1α, read-out: IRE1α IC50 (RNase activity)) it was 1810 nM; in series [2] (setting [4]), 727 nM and 2780 nM and 2470 nM and 1250 nM. In addition, the inhibition at 5.56 µM on IRE1α (ERN1) (Conc. 5560 nM, duplicates, read-out: IRE1a Kinase Displacement(%)) turned out to be 35%. Further, the inhibition at 16.7 µM at IRE1α (ERN1) (Conc. 16700 nM, duplicates, read-out: IRE1a Kinase Displacement(%)) came to 63%. Besides, the inhibition at 50 µM at IRE1α (ERN1) (Conc. 50000 nM, duplicates, read-out: IRE1a Kinase Displacement(%)) was 58%.
Take `COc1ccc2c(c1)c(CCC(=O)O)c(C)n2C(=O)c1cccc(C#N)c1` [IA30]: at IRE1α, the “stabilization of IRE1α in DSF” value is recorded as “concentration-dependently stabilized”. The “IRE1 ∆Tm(°C)” value on IRE1α (compound 6.25 μM) is 0.71 °C and 0.59 °C; on IRE1α (compound 12.5 μM), 1.19 °C and 1.23 °C; at IRE1α (compound 25 μM) it was 1.84 °C and 1.88 °C; on IRE1α (compound 50 μM) it was 2.92 °C and 2.84 °C. Further, the “p-IRE1a ∆Tm(°C)” value at p-IRE1α (compound 6.25 μM) is 0.49 °C and 0.43 °C; on p-IRE1α (compound 12.5 μM) it was 0.57 °C and 0.74 °C; on p-IRE1α (compound 25 μM) it was 1.03 °C and 1.24 °C; at p-IRE1α (compound 50 μM), 1.59 °C and 1.56 °C. The IC50 in series [1] (setting [5]) is 40 nM; in series [1] (setting [3]) it was 57 nM and 41 nM and 21 nM; in [1] (setting [6]) it was 56.8 nM and 41.3 nM and 21.4 nM; in series [2] (setting [7]) it was 90 nM and 85 nM; in [2] (setting [4]), 63.5 nM and 100 nM and 91.3 nM.
Consider `COc1ccc2c(c1)c(CCC(=O)O)c(C)n2C(=O)c1cccs1` [IA03], for which the “stabilization of IRE1α in DSF” value at IRE1α is listed as “concentration-dependently stabilized”. Also, the “IRE1 ∆Tm(°C)” value on IRE1α (compound 6.25 μM) was 0.75 °C and 0.95 °C; at IRE1α (compound 12.5 μM), 1 °C and 0.99 °C; on IRE1α (compound 25 μM), 1.96 °C and 1.82 °C; on IRE1α (compound 50 μM), 2.84 °C and 2.57 °C. In addition, the “p-IRE1a ∆Tm(°C)” value at p-IRE1α (compound 6.25 μM) was 0.24 °C and 0.45 °C; on p-IRE1α (compound 12.5 μM), 0.39 °C and 0.62 °C; on p-IRE1α (compound 25 μM), 1.04 °C and 1.05 °C; on p-IRE1α (compound 50 μM) it was 1.49 °C and 1.54 °C. Besides, the IC50 in [1] (setting [5]) is 120 nM; in series [1] (setting [3]), 176 nM and 68 nM and 105 nM; in series [1] (setting [6]), 176 nM and 68 nM and 105 nM; in [2] (setting [7]) it was 100 nM; in series [2] (setting [4]), 73.3 nM and 110 nM and 118 nM.
